US9944602B2, “Piperidinone herbicides” (E. I. DU PONT DE NEMOURS AND COMPANY, priority 2014, dated 2018)

Legend:
Format in all cases: in vivo
[1] = tested on: wheat (Triticum aestivum); assay: Test A postemergence wheat; settings: 0 to 100 scale, 0 is no effect, 100 is complete control
Source text: (§1) Seeds of plant species selected from barnyardgrass (Echinochloa crus-galli), kochia (Kochia scoparia), ragweed (common ragweed, Ambrosia elatior), ryegrass, Italian (Italian ryegrass, Lolium multiflorum), crabgrass, large (large crabgrass, Digitaria sanguinalis), foxtail, giant (giant foxtail, Setaria faberii), morningglory (Ipomoea spp.), pigweed (Amaranthus retroflexus), velvetleaf (Abutilon theophrasti), wheat (Triticum aestivum), and corn (Zea mays) were planted into a blend of loam soil and sand and treated preemergence with a directed soil spray using test chemicals formulated in a non-phytotoxic solvent mixture which included a surfactant.
(§2) At the same time, plants selected from these crop and weed species and also blackgrass (Alopecurus myosuroides), and galium (catchweed bedstraw, Galium aparine) were planted in pots containing the same blend of loam soil and sand and treated with postemergence applications of test chemicals formulated in the same manner. Plants ranged in height from 2 to 10 cm and were in the one- to two-leaf stage for the postemergence treatment. Treated plants and untreated controls were maintained in a greenhouse for approximately 10 d, after which time all treated plants were compared to untreated controls and visually evaluated for injury. Plant response ratings, summarized in Table A, are based on a 0 to 100 scale where 0 is no effect and 100 is complete control. A dash (-) response means no test result.

rice (Oryza sativa) = assay: Test B flooded paddy test rice; settings: Table B, Flood, 500 g ai/ha, scale 0 to 100
Protocol: (§3) Plant species in the flooded paddy test selected from rice (Oryza sativa), sedge, umbrella (small-flower umbrella sedge, Cyperus difformis), ducksalad (Heteranthera limosa), and barnyardgrass (Echinochloa crus-galli) were grown to the 2-leaf stage for testing. At the time of treatment, test pots were flooded to 3 cm above the soil surface, treated by application of test compounds directly to the paddy water, and then maintained at that water depth for the duration of the test. Treated plants and controls were maintained in a greenhouse for 13 to 15 d, after which time all species were compared to controls and visually evaluated. […] A dash (-) response means no test result.

kochia (Kochia scoparia) [2] = assay: Test A preemergence kochia; settings: 0 to 100 scale, 0 no effect, 100 complete control
Source text: as §1, §2

[3] = tested on: pigweed (Amaranthus retroflexus); assay: Test A postemergence pigweed; settings: 0 to 100 scale, 0 is no effect, 100 is complete control
Source text: as §1, §2

[4] = tested on: barnyardgrass (Echinochloa crus-galli); assay: Test A postemergence barnyardgrass; settings: 0 to 100 scale, 0 is no effect, 100 is complete control
Source text: as §1, §2

[5] = tested on: ragweed (common ragweed, Ambrosia elatior); assay: Test A postemergence ragweed; settings: 0 to 100 scale, 0 is no effect, 100 is complete control
Source text: as §1, §2

[6] = tested on: foxtail, giant (giant foxtail, Setaria faberii); assay: Test A preemergence foxtail, giant; settings: 0 to 100 scale, 0 no effect, 100 complete control
Source text: as §1, §2

[7] = tested on: ducksalad (Heteranthera limosa); assay: Test B flooded paddy test ducksalad; settings: Table B, Flood, 500 g ai/ha, scale 0 to 100
Protocol: as §3

[8] = tested on: ryegrass, Italian (Italian ryegrass, Lolium multiflorum); assay: Test A postemergence ryegrass, Italian; settings: 0 to 100 scale, 0 is no effect, 100 is complete control
Source text: as §1, §2

[9] = tested on: barnyardgrass (Echinochloa crus-galli); assay: Test B flooded paddy test barnyardgrass; settings: Table B, Flood, 500 g ai/ha, scale 0 to 100
Protocol: as §3

[10] = tested on: pigweed (Amaranthus retroflexus); assay: Test A preemergence pigweed; settings: 0 to 100 scale, 0 no effect, 100 complete control
Source text: as §1, §2

[11] = tested on: ryegrass, Italian (Italian ryegrass, Lolium multiflorum); assay: Test A preemergence ryegrass, Italian; settings: 0 to 100 scale, 0 no effect, 100 complete control
Source text: as §1, §2

kochia (Kochia scoparia) [12] = assay: Test A postemergence kochia; settings: 0 to 100 scale, 0 is no effect, 100 is complete control
Source text: as §1, §2

[13] = tested on: barnyardgrass (Echinochloa crus-galli); assay: Test A preemergence barnyardgrass; settings: 0 to 100 scale, 0 no effect, 100 complete control
Source text: as §1, §2

[14] = tested on: sedge, umbrella (small-flower umbrella sedge, Cyperus difformis); assay: Test B flooded paddy test sedge, umbrella; settings: Table B, Flood, 500 g ai/ha, scale 0 to 100
Protocol: as §3

[15] = tested on: ragweed (common ragweed, Ambrosia elatior); assay: Test A preemergence ragweed; settings: 0 to 100 scale, 0 no effect, 100 complete control
Source text: as §1, §2

[16] = tested on: foxtail, giant (giant foxtail, Setaria faberii); assay: Test A postemergence foxtail, giant; settings: 0 to 100 scale, 0 is no effect, 100 is complete control
Source text: as §1, §2

[17] = tested on: galium (catchweed bedstraw, Galium aparine); assay: Test A postemergence galium; settings: 0 to 100 scale, 0 is no effect, 100 is complete control
Source text: as §1, §2

corn (Zea mays) = assay: Test A postemergence corn; settings: 0 to 100 scale, 0 is no effect, 100 is complete control
Source text: as §1, §2

[18] = tested on: blackgrass (Alopecurus myosuroides); assay: Test A postemergence blackgrass; settings: 0 to 100 scale, 0 is no effect, 100 is complete control
Source text: as §1, §2

## Cc1c(F)cccc1NC(=O)C1C(=O)NCCC1c1cccc(C(F)(F)F)c1 (racemic) [Compound 26]
[1]; 125 g ai/ha
  Plant response rating, Wheat: 0
[1]; 500 g ai/ha
  Plant response rating, Wheat: 20
Rice (Oryza sativa)
  Plant response rating: 0
Kochia (Kochia scoparia) [2]; 125 g ai/ha
  Kochia plant response rating: 0
Kochia (Kochia scoparia) [2]; 500 g ai/ha
  Kochia plant response rating: 0
[3]; 125 g ai/ha
  Plant response rating, Pigweed: 0
[3]; 500 g ai/ha
  Plant response rating, Pigweed: 0
[4]; 125 g ai/ha
  Plant response rating, Barnyardgrass: 30
[4]; 500 g ai/ha
  Plant response rating, Barnyardgrass: 80
[5]; 125 g ai/ha
  Plant response rating, Ragweed: 0
[5]; 500 g ai/ha
  Plant response rating, Ragweed: 0
[6]; 125 g ai/ha
  Foxtail, Giant plant response rating: 60
[6]; 500 g ai/ha
  Foxtail, Giant plant response rating: 90
[7]
  Plant response rating: 50
[8]; 125 g ai/ha
  Plant response rating, Ryegrass, Italian: 20
[8]; 500 g ai/ha
  Plant response rating, Ryegrass, Italian: 20
[9]
  Plant response rating: 40
[10]; 125 g ai/ha
  Pigweed plant response rating: 0
[10]; 500 g ai/ha
  Pigweed plant response rating: 0
[11]; 125 g ai/ha
  Ryegrass, Italian plant response rating: 0
[11]; 500 g ai/ha
  Ryegrass, Italian plant response rating: 50
Kochia (Kochia scoparia) [12]; 125 g ai/ha
  Plant response rating, Kochia: 0
Kochia (Kochia scoparia) [12]; 500 g ai/ha
  Plant response rating, Kochia: 0
[13]; 125 g ai/ha
  Barnyardgrass plant response rating: 30
[13]; 500 g ai/ha
  Barnyardgrass plant response rating: 90
[14]
  Plant response rating: 0
[15]; 125 g ai/ha
  Ragweed plant response rating: 0
[15]; 500 g ai/ha
  Ragweed plant response rating: 0
[16]; 125 g ai/ha
  Plant response rating, Foxtail, Giant: 30
[16]; 500 g ai/ha
  Plant response rating, Foxtail, Giant: 90
[17]; 125 g ai/ha
  Plant response rating, Galium: 0
[17]; 500 g ai/ha
  Plant response rating, Galium: 0
Corn (Zea mays); 125 g ai/ha
  Plant response rating, Corn: 20
Corn (Zea mays); 500 g ai/ha
  Plant response rating, Corn: 40
[18]; 125 g ai/ha
  Plant response rating, Blackgrass: 0
[18]; 500 g ai/ha
  Plant response rating, Blackgrass: 40

## O=C1NCCC(c2cccc(C(F)(F)F)c2)C1C(=O)Nc1ccc(F)cc1F (racemic) [Compound 27]
[1]; 125 g ai/ha
  Plant response rating, Wheat: 0
[1]; 500 g ai/ha
  Plant response rating, Wheat: 0
Rice (Oryza sativa)
  Plant response rating: 0
Kochia (Kochia scoparia) [2]; 125 g ai/ha
  Kochia plant response rating: 0
Kochia (Kochia scoparia) [2]; 500 g ai/ha
  Kochia plant response rating: 0
[3]; 125 g ai/ha
  Plant response rating, Pigweed: 0
[3]; 500 g ai/ha
  Plant response rating, Pigweed: 0
[4]; 125 g ai/ha
  Plant response rating, Barnyardgrass: 50
[4]; 500 g ai/ha
  Plant response rating, Barnyardgrass: 60
[5]; 125 g ai/ha
  Plant response rating, Ragweed: 0
[5]; 500 g ai/ha
  Plant response rating, Ragweed: 0
[6]; 125 g ai/ha
  Foxtail, Giant plant response rating: 80
[6]; 500 g ai/ha
  Foxtail, Giant plant response rating: 90
[7]
  Plant response rating: 0
[8]; 125 g ai/ha
  Plant response rating, Ryegrass, Italian: 0
[8]; 500 g ai/ha
  Plant response rating, Ryegrass, Italian: 0
[9]
  Plant response rating: 0
[10]; 125 g ai/ha
  Pigweed plant response rating: 0
[10]; 500 g ai/ha
  Pigweed plant response rating: 0
[11]; 125 g ai/ha
  Ryegrass, Italian plant response rating: 0
[11]; 500 g ai/ha
  Ryegrass, Italian plant response rating: 0
Kochia (Kochia scoparia) [12]; 125 g ai/ha
  Plant response rating, Kochia: 0
Kochia (Kochia scoparia) [12]; 500 g ai/ha
  Plant response rating, Kochia: 0
[13]; 125 g ai/ha
  Barnyardgrass plant response rating: 60
[13]; 500 g ai/ha
  Barnyardgrass plant response rating: 90
[14]
  Plant response rating: 0
[15]; 125 g ai/ha
  Ragweed plant response rating: 0
[15]; 500 g ai/ha
  Ragweed plant response rating: 0
[16]; 125 g ai/ha
  Plant response rating, Foxtail, Giant: 40
[16]; 500 g ai/ha
  Plant response rating, Foxtail, Giant: 70
[17]; 125 g ai/ha
  Plant response rating, Galium: 0
[17]; 500 g ai/ha
  Plant response rating, Galium: 0
Corn (Zea mays); 125 g ai/ha
  Plant response rating, Corn: 0
Corn (Zea mays); 500 g ai/ha
  Plant response rating, Corn: 0
[18]; 125 g ai/ha
  Plant response rating, Blackgrass: 0
[18]; 500 g ai/ha
  Plant response rating, Blackgrass: 0

## O=C1NCCC(c2cccc(C(F)(F)F)c2)C1C(=O)Nc1cccc(Cl)c1Cl (racemic) [Compound 31]
[1]; 125 g ai/ha
  Plant response rating, Wheat: 0
[1]; 500 g ai/ha
  Plant response rating, Wheat: 0
Rice (Oryza sativa)
  Plant response rating: 10
Kochia (Kochia scoparia) [2]; 125 g ai/ha
  Kochia plant response rating: 0
Kochia (Kochia scoparia) [2]; 500 g ai/ha
  Kochia plant response rating: 0
[3]; 125 g ai/ha
  Plant response rating, Pigweed: 0
[3]; 500 g ai/ha
  Plant response rating, Pigweed: 0
[4]; 125 g ai/ha
  Plant response rating, Barnyardgrass: 60
[4]; 500 g ai/ha
  Plant response rating, Barnyardgrass: 80
[5]; 125 g ai/ha
  Plant response rating, Ragweed: 0
[5]; 500 g ai/ha
  Plant response rating, Ragweed: 0
[6]; 125 g ai/ha
  Foxtail, Giant plant response rating: 70
[6]; 500 g ai/ha
  Foxtail, Giant plant response rating: 90
[7]
  Plant response rating: 0
[8]; 125 g ai/ha
  Plant response rating, Ryegrass, Italian: 0
[8]; 500 g ai/ha
  Plant response rating, Ryegrass, Italian: 0
[9]
  Plant response rating: 95
[10]; 125 g ai/ha
  Pigweed plant response rating: 0
[10]; 500 g ai/ha
  Pigweed plant response rating: 0
[11]; 125 g ai/ha
  Ryegrass, Italian plant response rating: 0
[11]; 500 g ai/ha
  Ryegrass, Italian plant response rating: 0
Kochia (Kochia scoparia) [12]; 125 g ai/ha
  Plant response rating, Kochia: 0
Kochia (Kochia scoparia) [12]; 500 g ai/ha
  Plant response rating, Kochia: 0
[13]; 125 g ai/ha
  Barnyardgrass plant response rating: 70
[13]; 500 g ai/ha
  Barnyardgrass plant response rating: 80
[14]
  Plant response rating: 0
[15]; 125 g ai/ha
  Ragweed plant response rating: 0
[15]; 500 g ai/ha
  Ragweed plant response rating: 0
[16]; 125 g ai/ha
  Plant response rating, Foxtail, Giant: 70
[16]; 500 g ai/ha
  Plant response rating, Foxtail, Giant: 80
[17]; 125 g ai/ha
  Plant response rating, Galium: 0
[17]; 500 g ai/ha
  Plant response rating, Galium: 0
Corn (Zea mays); 125 g ai/ha
  Plant response rating, Corn: 0
Corn (Zea mays); 500 g ai/ha
  Plant response rating, Corn: 0
[18]; 125 g ai/ha
  Plant response rating, Blackgrass: 20
[18]; 500 g ai/ha
  Plant response rating, Blackgrass: 40
